Experimental data published in patent US6686450B1, “Immunosuppressive agents that inhibit calcineurin function and uses of these agents” (Massachusetts Institute of Technology, priority 1998, dated 2004).
Entries after “also recorded” stand apart in the source; their conditions may differ. Values belong to the substance of their own block, whether it stands above or below them.

Legend:
Format in all cases: cell-based
IL-2 promoter [1] = assay: IL-2 promoter luciferase reporter gene assay in Jurkat T cells; conditions: PMA and ionomycin
IL-2 promoter [2] = assay: IL-2 promoter activation in T cells expressing calcineurin mutant; conditions: expressed in T cells
[3] = molecular target: T1, interaction between Cabin 1-14 and full length calcineurin β2 (H160N) (Homo sapiens, UniProt P16298, H160N); assay: mammalian two-hybrid assay in Jurkat T cells (luciferase reporter); conditions: Jurkat T cells, PMA/ionomycin stimulated, drug added 30 min prior to stimulation
T1 construct: expressed in transfected cells; host or cells: Jurkat T cells
Excerpt: A mammalian two-hybrid system was established in Jurkat T cells by fusing calcineurin with the Gal4 DNA binding domain and Cabin 1-14 with the VP16 activation domain (Hsu et al., Proc. Natl. Acid Sci. USA 91:3181-3185 (1994)). The fusion plasmids for mammalian two-hybrid assays were constructed as follows: The cDNAs of calcineurin Aβ2 wild type and H160N mutant were fused to the GAL4 DB in the pM vector (obtained from Clontech, Palo Alto, Calif.) (pMCNβ2 and PMCNβ2 (H160N), and the cDNA of Cabin 1-14 was fused to the VP16 AD in the pVP16 vector (pVPCabin 1-14). Jurkat T cells were transfected with 5 μg of pMCβ2 or pMCβ2 (H160N), 5 μg of pVPCabin 1-14, 1 μg of pCMV-βGal, and 2 μg of pg5Luc, a luciferase reporter plasmid containing GAL4 promoter, by electroporation (960 μF, 250V). After 48 hr, cells were stimulated with 40 nM PMA and 2.5 μM ionomycin, either alone or in combination, for 6 hr before luciferase activity was measured for each sample. The luciferase reporter gene assay reagents were obtained from Promega, Madison, Wis., and the assay was performed per manufacturer's instructions. […] Where appropriate, the transfection efficiency was measured by co-transfecting 2 μg of CMV-driven β-galactosidase expression vector and measuring enzymatic β-galactosidase activity (Ausubel et al., Current Protocols in Molecular Biology (John Wiley & Sons, Inc., New York, 1994)).

Substance: Cabin 1: isolated calcineurin binding polypeptide, amino acid sequence SEQ ID NO:1, 2220 amino acids
effect on IL-2 reporter gene activation (IL-2 promoter [1]): lower potency
effect on IL-2 reporter gene activation (IL-2 promoter [1]; listed as Cabin1): inhibit

Substance: H 160N: catalytically inactive mutant of the β2 isoform of calcineurin, used as bait
blocking of PMA and ionomycin-stimulated IL-2 promoter activation (IL-2 promoter [2]): over 60%

Substance: bisindolylmaleimide
sensitivity of interaction between full length calcineurin β2 (H160N) and Cabin 1-14 to drug [3]: inhibited the interaction between calcineurin and Cabin 1-14 in a dose-dependent manner; also recorded: sensitive

sensitivity of interaction between full length calcineurin β2 (H160N) and Cabin 1-14 to drug [3]: sensitive
Substance: cyclosporin A [CsA]
